Reference: PMC6257796, “Effects of Eupatilin and Jaceosidin on Cytochrome P450 Enzyme Activities in Human Liver Microsomes” (Molecules, 2010)

Key:
Type in all cases: in vitro ADME
[1] = target: T1, CYP2C19 (Homo sapiens, UniProt P33261); test: Kinetic analysis (Ki, inhibition type) in human liver microsomes: [S]-mephenytoin 4'-hydroxylation; conditions: pooled human liver microsomes; for Inhibition type, S-mephenytoin 4'-hydroxylation (CYP2C19): Lineweaver, Dixon and secondary reciprocal plots
T1 construct: pooled human liver microsomes (0.25 mg/mL); tissue BD Gentest Co. H161; host or cells: pooled human liver microsomes
Procedure: (§1) The Ki values and inhibition types (competitive, noncompetitive, uncompetitive, or mixed) were determined for eupatilin and jaceosidin using Lineweaver plots, Dixon plots, and secondary reciprocal plots.
(§2) The reactions were initiated by addition of NADPH at 37 °C and stopped after 15 min by placing the incubation tubes on ice and adding 100 μL of ice-cold methanol containing an internal standard. The incubation mixtures were centrifuged at 10,000' g for 5 min, and aliquots (5 μL) of the supernatants were analyzed by liquid chromatography/tandem mass spectrometry (LC/MS/MS).
(§3) All seven metabolites produced from the cocktail of CYP isoform-specific substrates were simultaneously determined by LC/MS/MS. The system consisted of a tandem quadrupole mass spectrometer (TSQ Quantum Access, ThermoFisher Scientific, CA, USA) coupled with a Nanospace SI-2 LC system. The separation was performed on an Atlantis dC18 column (5 μm, 2.1 mm i.d. × 100 mm, Waters, Waltham, MA, USA) using the gradient elution of a mixture of 5% methanol in 0.1% formic acid (mobile phase A) and 95% methanol in 0.1% formic acid (mobile phase B) at a flow rate of 0.25 mL/min: 10% mobile phase B for 1 min, 10% to 95% mobile phase B for 1 min, 95% mobile phase B for 5 min. The column and autosampler temperatures were 50 °C and 4 °C, respectively. After 1.5 min, the LC eluant was diverted from waste to the mass spectrometer that was fitted with an electrospray ionization (ESI) source and operated in the positive ion mode. The ESI source settings for the ionization of the metabolites were as follows: electrospray voltage, 5.0 kV; vaporizer temperature, 420 °C; capillary temperature 360 °C; sheath gas pressure, 35 psi; auxiliary gas pressure, 10 psi. Quantification was performed by selected reaction monitoring (SRM) of the [M+H]^+ ion and the related product ion for each metabolite. The analytical data were processed using Xcalibur® software (ThermoFisher Scientific).
(§4) The IC50 values (concentration of inhibitor causing 50% inhibition of the original enzyme activity) were calculated using WinNonlin software, a non-linear regression analysis program (Pharsight, Mountain View, CA, USA). The apparent kinetic parameters for inhibitory potential (Ki values) were estimated from the fitted curves using Enzyme Kinetics Ver. 1.3 program (Systat Software Inc., San Jose, CA, USA).

[2] = target: T2, CYP2C8 (Homo sapiens, UniProt P10632); test: Kinetic analysis (Ki, inhibition type) in human liver microsomes: amodiaquine N-deethylation; conditions: pooled human liver microsomes
T2 construct: pooled human liver microsomes (0.25 mg/mL); tissue BD Gentest Co. H161; host or cells: pooled human liver microsomes
T2 sequence (P10632 1-490): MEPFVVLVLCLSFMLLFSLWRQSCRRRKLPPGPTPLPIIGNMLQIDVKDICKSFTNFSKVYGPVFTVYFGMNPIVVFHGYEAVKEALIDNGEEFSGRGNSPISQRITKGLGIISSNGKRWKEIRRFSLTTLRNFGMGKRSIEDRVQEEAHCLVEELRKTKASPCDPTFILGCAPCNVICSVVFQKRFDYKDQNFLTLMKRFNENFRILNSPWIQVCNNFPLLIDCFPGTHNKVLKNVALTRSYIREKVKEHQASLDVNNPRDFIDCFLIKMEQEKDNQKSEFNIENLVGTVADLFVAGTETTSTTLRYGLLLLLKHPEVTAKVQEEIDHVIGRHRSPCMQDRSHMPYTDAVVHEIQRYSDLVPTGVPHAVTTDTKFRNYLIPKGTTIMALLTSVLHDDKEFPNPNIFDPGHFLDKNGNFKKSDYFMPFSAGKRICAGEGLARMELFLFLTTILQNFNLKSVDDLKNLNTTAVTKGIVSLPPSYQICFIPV
Procedure: as §1, §2, §3, §4

[3] = target: T3, CYP2C9 (Homo sapiens, UniProt P11712); test: Kinetic analysis (Ki, inhibition type) in human liver microsomes: diclofenac 4-hydroxylation; conditions: pooled human liver microsomes; for Inhibition type, diclofenac 4-hydroxylation (CYP2C9): Lineweaver, Dixon and secondary reciprocal plots
T3 construct: pooled human liver microsomes (0.25 mg/mL); tissue BD Gentest Co. H161; host or cells: pooled human liver microsomes
Procedure: as §1, §2, §3, §4

[4] = target: T3, CYP2C9; test: Cocktail probe assay in pooled human liver microsomes: diclofenac 4-hydroxylation (IC50); conditions: 10 μM diclofenac
Procedure: (§5) The inhibitory potencies (IC50 values) of eupatilin and jaceosidin were determined with CYP assays in the presence and absence of eupatilin and jaceosidin (final concentrations of 0.1−100 μM with acetonitrile concentration of less than 0.5% v/v) using pooled human liver microsomes. Phenacetin O-deethylase, coumarin 7-hydroxylase, amodiaquine N-deethylase, diclofenac hydroxylase, [S]-mephenytoin 4'-hydroxylase, bufuralol 1'-hydroxylase, and midazolam 1'-hydroxylase activities were determined as probe activities for CYP1A2, CYP2A6, CYP2C8, CYP2C9, CYP2C19, CYP2D6, and CYP3A, respectively, using cocktail incubation and tandem mass spectrometry. The incubation mixtures were prepared in a total volume of 200 μL as follows: pooled human liver microsomes (0.25 mg/mL), 1.3 mM NADPH, 3.3 mM MgCl2, 50 mM potassium phosphate buffer (pH 7.4), and a cocktail of probe substrates and various concentrations of eupatilin or jaceosidin (0.1−100 μM). […] After a 3 min preincubation at 37 °C, the reactions were initiated by adding NADPH and incubated for 20 min at 37 °C with shaking in a water bath. After incubation, the reaction was stopped by placing the tubes on ice and adding 100 μL of ice-cold acetonitrile containing internal standards (0.5 μg/mL [^13C,^15N]-acetaminophen for acetaminophen and N-desethylamodiaquine, 0.5 μg/mL [^2H5]-7-hydroxycoumarin for 7-hydroxycoumarin, 2.0 μg/mL [^13C6]-4-hydoxydiclofenac for 4-hydoxydiclofenac, 0.5 μg/mL [^2H3]-4'-hydoxymephenytoin for 4-hydoxymephenytoin and 1'-hydroxymidazolam, and 0.5 μg/mL [^2H7]-1'-hydroxybufuralol for 1'-hydroxybufuralol). The incubation mixtures were then centrifuged at 10,000× g for 5 min. All incubations were performedin triplicate.
(§6) To evaluate the effect of preincubation on inhibitory potency, eupatilin and jaceosidin (0.1−100 μM) were preincubated for 30 min with NADPH, buffer, and microsomes before the addition of the CYP probe substrates. The reaction was started by addition of the cocktail of probe substrates.
(§7) All seven metabolites produced from the cocktail of CYP isoform-specific substrates were simultaneously determined by LC/MS/MS. The system consisted of a tandem quadrupole mass spectrometer (TSQ Quantum Access, ThermoFisher Scientific, CA, USA) coupled with a Nanospace SI-2 LC system. The separation was performed on an Atlantis dC18 column (5 μm, 2.1 mm i.d. × 100 mm, Waters, Waltham, MA, USA) using the gradient elution of a mixture of 5% methanol in 0.1% formic acid (mobile phase A) and 95% methanol in 0.1% formic acid (mobile phase B) at a flow rate of 0.25 mL/min: 10% mobile phase B for 1 min, 10% to 95% mobile phase B for 1 min, 95% mobile phase B for 5 min. […] Quantification was performed by selected reaction monitoring (SRM) of the [M+H]^+ ion and the related product ion for each metabolite. […]

[5] = target: T4, CYP1A2 (Homo sapiens, UniProt P05177); test: Cocktail probe assay in pooled human liver microsomes: phenacetin O-deethylation (IC50); conditions: 50 μM phenacetin
T4 construct: pooled human liver microsomes (0.25 mg/mL); tissue BD Gentest Co. H161; host or cells: pooled human liver microsomes
T4 sequence (P05177 1-516): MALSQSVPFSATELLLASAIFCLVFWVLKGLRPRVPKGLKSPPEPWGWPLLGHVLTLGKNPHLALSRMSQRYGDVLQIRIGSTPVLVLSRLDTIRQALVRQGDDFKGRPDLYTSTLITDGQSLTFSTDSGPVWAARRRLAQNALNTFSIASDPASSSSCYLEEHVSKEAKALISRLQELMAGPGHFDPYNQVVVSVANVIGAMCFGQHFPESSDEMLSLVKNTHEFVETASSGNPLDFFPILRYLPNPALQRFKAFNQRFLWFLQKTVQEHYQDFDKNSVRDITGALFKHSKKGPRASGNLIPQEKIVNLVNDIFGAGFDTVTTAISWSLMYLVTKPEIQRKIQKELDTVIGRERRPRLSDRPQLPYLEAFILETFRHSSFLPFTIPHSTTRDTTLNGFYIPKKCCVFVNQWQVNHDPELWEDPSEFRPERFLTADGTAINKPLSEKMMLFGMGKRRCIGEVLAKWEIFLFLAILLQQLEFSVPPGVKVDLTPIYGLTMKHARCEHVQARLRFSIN
Procedure: as §5, §6, §7

[6] = target: T5, CYP2A6 (Homo sapiens, UniProt P11509); test: Cocktail probe assay in pooled human liver microsomes: coumarin 7-hydroxylation (IC50); conditions: 100 μM, human liver microsomes
T5 construct: pooled human liver microsomes (0.25 mg/mL); tissue BD Gentest Co. H161; host or cells: pooled human liver microsomes
T5 sequence (P11509 1-494): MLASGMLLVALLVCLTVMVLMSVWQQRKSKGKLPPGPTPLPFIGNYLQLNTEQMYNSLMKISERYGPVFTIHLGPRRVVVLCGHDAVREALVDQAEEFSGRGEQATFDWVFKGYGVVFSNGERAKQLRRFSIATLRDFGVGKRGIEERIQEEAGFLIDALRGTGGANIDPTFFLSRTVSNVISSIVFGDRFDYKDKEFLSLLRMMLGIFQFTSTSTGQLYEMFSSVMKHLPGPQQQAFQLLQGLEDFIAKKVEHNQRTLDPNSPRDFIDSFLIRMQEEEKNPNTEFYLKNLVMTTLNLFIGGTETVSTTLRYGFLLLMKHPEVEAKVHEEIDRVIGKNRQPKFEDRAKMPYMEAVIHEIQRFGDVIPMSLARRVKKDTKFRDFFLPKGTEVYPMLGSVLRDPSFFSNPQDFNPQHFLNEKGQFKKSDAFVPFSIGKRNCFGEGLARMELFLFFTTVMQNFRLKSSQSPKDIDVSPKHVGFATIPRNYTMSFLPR
Procedure: as §5, §6, §3, §4

[7] = with 30 min preincubation in presence of NADPH

T1 sequence (P33261 whole entry): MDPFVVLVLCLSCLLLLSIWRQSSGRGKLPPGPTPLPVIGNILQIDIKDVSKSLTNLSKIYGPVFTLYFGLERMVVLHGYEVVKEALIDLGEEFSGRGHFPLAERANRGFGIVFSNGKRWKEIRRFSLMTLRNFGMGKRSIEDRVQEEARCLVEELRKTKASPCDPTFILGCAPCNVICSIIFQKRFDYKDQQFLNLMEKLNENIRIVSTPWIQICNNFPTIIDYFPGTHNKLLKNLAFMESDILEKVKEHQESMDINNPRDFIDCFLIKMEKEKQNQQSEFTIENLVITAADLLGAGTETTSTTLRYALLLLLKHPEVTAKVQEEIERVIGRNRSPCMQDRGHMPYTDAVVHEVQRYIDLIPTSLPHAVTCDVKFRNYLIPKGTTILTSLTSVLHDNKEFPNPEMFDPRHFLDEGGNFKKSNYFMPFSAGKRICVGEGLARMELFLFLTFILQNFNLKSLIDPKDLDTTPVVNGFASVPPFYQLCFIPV
T3 sequence (P11712 whole entry): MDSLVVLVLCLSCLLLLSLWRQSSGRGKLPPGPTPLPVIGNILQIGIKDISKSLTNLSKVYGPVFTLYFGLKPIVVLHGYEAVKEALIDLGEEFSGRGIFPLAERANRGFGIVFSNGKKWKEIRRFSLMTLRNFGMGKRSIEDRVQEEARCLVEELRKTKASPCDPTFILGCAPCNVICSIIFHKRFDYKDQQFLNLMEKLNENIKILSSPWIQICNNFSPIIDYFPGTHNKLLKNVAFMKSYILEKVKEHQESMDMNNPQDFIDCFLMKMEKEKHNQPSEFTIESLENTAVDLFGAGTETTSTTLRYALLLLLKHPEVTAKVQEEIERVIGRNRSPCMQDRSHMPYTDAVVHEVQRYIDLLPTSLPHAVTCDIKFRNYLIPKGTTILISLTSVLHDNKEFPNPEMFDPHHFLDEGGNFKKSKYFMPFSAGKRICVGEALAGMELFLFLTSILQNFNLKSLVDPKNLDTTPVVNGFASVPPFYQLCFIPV

COc1cc(-c2cc(=O)c3c(O)c(OC)c(O)cc3o2)ccc1O [jaceosidin, 5,7-dihydroxy-2-(4-hydroxy-3-methoxyphenyl)-6-methoxychromen-4-one]
Ki ([1]; 10-100 μM [S]-mephenytoin): 45.1 ± 4.2 µM | Inhibition type, S-mephenytoin 4'-hydroxylation (CYP2C19) [1]: mixed | Inhibition type, S-mephenytoin 4'-hydroxylation (CYP2C19) ([1]; listed as Jaceosidin): mixed type | Ki ([2]; 0.5-5 μM amodiaquine): 109 ± 7.3 µM | Inhibition type, amodiaquine N-deethylation (CYP2C8) ([2]; Lineweaver, Dixon and secondary reciprocal plots): competitive | Ki ([3]; 1-50 μM diclofenac): 6.4 ± 0.25 µM | Inhibition type, diclofenac 4-hydroxylation (CYP2C9) [3]: competitive | Inhibition type, diclofenac 4-hydroxylation (CYP2C9) ([3]; listed as Jaceosidin): competitive | IC50 ([4]; no preincubation): 10.2 ± 1 µM | IC50 [4, 7]: 8.6 ± 0.91 µM | IC50 ([5]; no preincubation): 5.3 ± 0.81 µM | IC50 [5, 7]: 6 ± 0.45 µM | Inhibition of CYP2A6-catalyzed coumarin 7-hydroxylation at the highest concentration tested [6]: negligible inhibition
